ChEMBL document CHEMBL1134201, “Exploring the relationship between binding modes of 9-(aminomethyl)-9,10-dihydroanthracene and cyproheptadine analogues at the 5-HT2A serotonin receptor” (Bioorg Med Chem Lett, 2001)

Each compound was assayed against T1, 5-hydroxytryptamine receptor 2A (Rattus norvegicus, UniProt P14842) (assay: Binding affinity against 5-hydroxytryptamine 2A receptor expressed NIH3T3 cells using [3H]ketanserin).
Type: cell-based

T1 sequence (P14842 whole entry): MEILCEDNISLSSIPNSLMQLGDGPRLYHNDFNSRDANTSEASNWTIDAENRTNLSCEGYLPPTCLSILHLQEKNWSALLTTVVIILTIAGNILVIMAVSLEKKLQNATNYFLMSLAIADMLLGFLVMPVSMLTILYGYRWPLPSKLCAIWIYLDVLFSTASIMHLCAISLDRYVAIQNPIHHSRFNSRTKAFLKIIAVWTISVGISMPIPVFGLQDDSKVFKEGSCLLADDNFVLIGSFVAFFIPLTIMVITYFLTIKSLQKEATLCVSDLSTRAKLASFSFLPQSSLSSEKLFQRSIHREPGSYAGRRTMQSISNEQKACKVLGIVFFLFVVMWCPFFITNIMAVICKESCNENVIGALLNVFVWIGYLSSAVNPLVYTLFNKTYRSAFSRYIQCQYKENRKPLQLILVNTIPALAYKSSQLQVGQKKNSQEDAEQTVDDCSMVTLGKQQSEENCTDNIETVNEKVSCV

Compared with `NCC1c2ccccc2Sc2ccccc21`, `NCC1c2ccccc2Oc2ccccc21` is 2.6-fold higher in Ki: 65 nM for the first, 170 nM for the second.

Compared with `CN1CCC(=C2c3ccccc3Cc3ccccc32)CC1`, `NCC1c2ccccc2CCc2ccccc21` is 160-fold higher in Ki: 0.7 nM for the first, 112 nM for the second. The first binds more tightly here.

These compounds were tested against T1, 5-hydroxytryptamine receptor 2A (assay: Binding affinity against 5-hydroxytryptamine 2A receptor from rat forebrain using [3H]ketanserin as radioligand).

Going from `CC(=C1CCN(C)CC1)c1ccccc1` to `CN1CCC(=C(c2ccccc2)c2ccccc2)CC1`, the Ki falls from 355 nM to 13 nM (27-fold). The second binds more tightly here.

Compared with `CN1CCC(=C2c3ccccc3Oc3ccccc32)CC1`, `CN1CCC(=C2c3ccccc3-c3ccccc32)CC1` is 50-fold higher in Ki: 4 nM for the first, 199 nM for the second.

Going from `CN1CCC(=C2c3ccccc3CCc3ccccc32)CC1` to `CN1CCC(=C2c3ccccc3Sc3ccccc32)CC1` [PIMETHIXENE], the Ki falls from 9 nM to 2.5 nM (3.6-fold). The second binds more tightly here.
